One data set deals with 3T3L1 adipocytes. As to the kind of experiment: Insulin-stimulated 2-deoxyglucose uptake in 3T3L1 adipocytes. It counts as cell-based, mouse. More on the design: inhibitory effects of LPS on insulin-stimulated glucose uptake / direct effect on insulin-stimulated or basal transport: dose or concentration left out as unconfirmed. The procedure: Cell culture and transfection. 3T3-L1 fibroblasts (American Type Culture Collection) were cultured and differentiated as described previously [Reed & Lane, Proc Natl Acad Sci USA. 1980 January; 77(1):285-9, herein incorporated by reference]. Cells were routinely used within 7 days upon completion of the differentiation process, with only cultures in which >95% of cells displaying adipocyte morphology being used. CHO-IR and COS-1 cells were maintained in Dulbecco modified Eagle medium (Gibco) containing 10% foetal bovine serum. CHO-IR and 3T3-L1 cells were routinely transfected with plasmids and siRNA by electroporation as described previously (Inoue, M., et al., (2006) Mol. Biol. Cell 17, 2303, Baumann, et al., (2000) Nature 407, 202, both of which are herein incorporated by reference). Cos-1 cells were transfected using FuGene6 (Roche Diagnostics) in accordance with the manufacturer's protocol.
Glucose uptake analysis. 3T3-L1 adipocytes grown in 12-well plates were subjected to a glucose uptake assay as described previously [Van den Berghe et al., Mol Cell Biol. 1994 April; 14(4):2372-7, herein incorporated by reference] using 0.075 uCi/well 2-deoxy-D-[^14C]glucose (GE Health). Samples were counted in an LS6500 Multi-Purpose Scintillation Counter (Beckman Coulter) using BCS Biodegradable Counting Scintillant (GE Health).

The target of data set [1] is human insulin receptor Ser^1035Ala mutant (UniProt P06213).

`COc1cc2ncn(-c3cc(OCc4ccccc4S(C)(=O)=O)c(C#N)s3)c2cc1OC` [5-(5,6-Dimethoxy-1H-benzimidazol-1-yl)-3-[[2-(methylsulfonyl)phenyl]methoxy]-2-thiophenecarbonitrile]: the “direct effect on insulin-stimulated or basal transport” value with 3T3L1 adipocytes (3T3L1 adipocytes) was “little direct effect”. Also, in the data set with 3T3L1 adipocytes (3T3L1 adipocytes treated with 50 nM inhibitor prior to LPS and insulin (FIG. 6b)), the “LPS decreases in insulin stimulated glucose uptake” value is recorded as “prevents”. Also, the “inhibitory effects of LPS on insulin-stimulated glucose uptake” value in the data set on 3T3L1 adipocytes (3T3L1 adipocytes treated, then LPS, followed by insulin) was “prevented”.

With “wild-type IKKi (ectopically expressed, Example 1)”, in data set [1], the “incorporation of radioactive phosphate into the receptor” value was “the Ser^1035Ala substitution blocked the incorporation of radioactive phosphate relative to the wild-type receptor when co-expressed with IKKi”.

(Values after patent US20090304714A1, “IKKi Inhibitor Therapies and Screening Methods, and Related IKKi Diagnostics” (The Regents of the University of Michigan, priority 2008, published 2009).)
